Test results from patent publication US20160037775A1, “ACTIVE INGREDIENT COMBINATIONS HAVING INSECTICIDAL AND ACARICIDAL PROPERTIES” (priority 2010, published 2016).
Where two headings read alike, the source gives them in different places.

Legend:
Type in all cases: in vivo
[1] = system: Tetranychus urticae; assay: Tetranychus test (OP-resistant/spray treatment); details: for pest or weed control at 4 g/ha / Kill rate in % after 6 d: after 6 d
Excerpt: (§1) The expected action for a given combination of two active ingredients can be calculated according to S. R. Colby, Weeds 15 (1967), 20-22 as follows:
(§2) • X is the kill rate, expressed in % of the untreated control, in the case of use of active ingredient A in an application rate of m g/ha or in a concentration of m ppm, • Y is the kill rate, expressed in % of the untreated control, in the case of use of active ingredient B in an application rate of n g/ha or in a concentration of n ppm, and • E is the kill rate, expressed in % of the untreated control, in the case of use of active ingredients A and B in application rates of m and n g/ha or in a concentration of m and n ppm, then
(§3) If the actual kill rate is greater than that calculated, the kill rate of the combination is superadditive, which means that a synergistic effect is present. In this case, the kill rate actually observed must be greater than the value calculated from the above formula for the expected kill rate (E).
(§4) • 78 parts by weight of acetone • 1.5 parts by weight of dimethylformamide Emulsifier: 0.5 part by weight of alkylaryl polyglycol ether
(§5) To produce an appropriate active ingredient formulation, 1 part by weight of active ingredient is mixed with the stated amounts of solvent and emulsifier, and the concentrate is diluted with emulsifier-containing water to the desired concentration.
Discs of bean leaves (Phaseolus vulgaris) infested by all stages of the two-spotted spider mite (Tetranychus urticae) are sprayed with an active ingredient formulation of the desired concentration.
After the desired period of time, the effect in % is determined. 100% means that all of the spider mites have been killed; 0% means that none of the spider mites have been killed.

[2] = system: Spodoptera frugiperda; assay: whole plant or invertebrate
Excerpt: as §3, §4, §5
After the desired time, the kill in % is determined. 100% means that all caterpillars have been killed; 0% means that none of the caterpillars have been killed. The kill rates determined are entered into Colby's formula.

[3] = system: Myzus persicae; assay: whole plant or invertebrate
Excerpt: as §3, §4, §5
After the desired time, the kill in % is determined. 100% means that all aphids have been killed; 0% means that no aphids have been killed. The kill rates determined are entered into Colby's formula.

[4] = system: Phaedon cochleariae; assay: whole plant or invertebrate
Excerpt: as §1, §2, §3, §4, §5
Cabbage leaves (Brassica oleracea) are treated by spraying with the active ingredient formulation of the desired concentration and populated with larvae of the mustard beetle (Phaedon cochleariae) while the leaves are still moist.
After the desired period of time, the kill rate in % is determined. 100% means that all beetle larvae have been killed; 0% means that none of the beetle larvae have been killed. The kill rates determined are entered into Colby's formula.

[5] = Spodoptera frugiperda, 144 h, 0.8 g/ha, after 6 d, read-out: Kill rate in % after 6 d
[6] = Phaedon cochleariae, 144 h, 4 g/ha, after 6 d, read-out: Kill rate in % after 6 d
[7] = Spodoptera frugiperda, 144 h, 4 g/ha, after 6 d, read-out: Kill rate in % after 6 d
[8] = Tetranychus urticae, 144 h, applied individually, read-out: Kill rate in % after 6 d
[9] = Spodoptera frugiperda, 144 h, 0.032 g/ha, after 6 d, read-out: Kill rate in % after 6 d
[10] = Myzus persicae, 144 h, after 6 d, read-out: Kill rate in % after 6 d
[11] = Phaedon cochleariae, 144 h, after 6 d, read-out: Kill rate in % after 6 d

## O=C(NC(=O)c1c(F)cccc1F)Nc1cc(Cl)c(OC(F)(F)C(F)C(F)(F)F)cc1Cl (centres unmarked) [lufenuron]
[1]; Tetranychus urticae, 48 h, 100 g/ha, after 2 d, applied individually, read-out: Kill rate in % after 2 d
  pest or weed control at 100 g/ha: 0%
[2]; [5]
  pest or weed control at 0.8 g/ha: 17%

## spinosad
[1]; 20 g/ha, after 2 d, applied individually
  Kill rate in % after 2 d: 20%
[2]; 0.16 g/ha, after 6 d
  Kill rate in % after 6 d: 0%

## O=C(NC(=O)c1c(F)cccc1F)Nc1ccc(Oc2ccc(C(F)(F)F)cc2Cl)cc1F [flufenoxuron]
[3]; Myzus persicae, 144 h, 0.8 g/ha, after 6 d, read-out: Kill rate in % after 6 d
  pest or weed control at 0.8 g/ha: 0%
[2]; [5]
  pest or weed control at 0.8 g/ha: 0%

## FC(F)(F)c1ccc(OCCCOc2c(Cl)cc(OCC=C(Cl)Cl)cc2Cl)nc1 [pyridalyl]
[3]; Myzus persicae, 24 h, after 1 d, read-out: Kill rate in % after 1 d
  pest or weed control at 4 g/ha: 0%
[4]; [6]
  pest or weed control at 4 g/ha: 0%
[2]; [7]
  pest or weed control at 4 g/ha: 0%

## CCC(C)(C)C(=O)OC1=C(c2ccc(Cl)cc2Cl)C(=O)OC12CCCCC2 [spirodiclofen]
[3]; 20 g/ha, after 1 d
  Kill rate in % after 1 d: 0%
[3]; 100 g/ha, after 1 d
  Kill rate in % after 1 d: 0%
[4]; 4 g/ha, after 6 d
  Kill rate in % after 6 d: 0%
[1]; 100 g/ha, after 2 d, applied individually
  Kill rate in % after 2 d: 0%

## Cc1nn(C)c(Oc2ccccc2)c1C=NOCc1ccc(C(=O)OC(C)(C)C)cc1 [fenpyroximate]
[1]; Tetranychus urticae, 48 h, 0.8 g/ha, after 2 d, applied individually, read-out: Kill rate in % after 2 d
  pest or weed control at 0.8 g/ha: 0%
[2]; 0.8 g/ha
  Kill rate in % after 2 d: 0%

## CCc1nn(C)c(C(=O)NCc2ccc(C(C)(C)C)cc2)c1Cl [tebufenpyrad]
[3]; Myzus persicae, 24 h, 0.8 g/ha, after 1 d, read-out: Kill rate in % after 1 d
  pest or weed control at 0.8 g/ha: 0%
[3]; Myzus persicae, 144 h, 0.16 g/ha, after 6 d, read-out: Kill rate in % after 6 d
  pest or weed control at 0.16 g/ha: 0%
[4]; Phaedon cochleariae, 144 h, 0.16 g/ha, after 6 d, read-out: Kill rate in % after 6 d
  pest or weed control at 0.16 g/ha: 0%
[1]; Tetranychus urticae, 48 h, 0.16 g/ha, after 2 d, applied individually, read-out: Kill rate in % after 2 d
  pest or weed control at 0.16 g/ha: 0%
[1]; [8]
  pest or weed control at 4 g/ha: 40%

## CNC(=O)c1cc(Cl)cc(C)c1NC(=O)c1cc(Br)nn1-c1ncccc1Cl [chloranthraniliprole]
[2]; [9]
  pest or weed control at 0.032 g/ha: 50%

## abamectin
[3]; 0.16 g/ha, after 1 d
  Kill rate in % after 1 d: 0%
[4]; 0.032 g/ha, after 6 d
  Kill rate in % after 6 d: 0%
[1]; 0.0064 g/ha, applied individually
  Kill rate in % after 6 d: 0%
[1]; 0.032 g/ha, applied individually
  Kill rate in % after 6 d: 80%

## CCc1ccc(C(=O)NN(C(=O)c2cc(C)cc(C)c2)C(C)(C)C)cc1 [tebufenozide]
[3]; [10]
  pest or weed control at 4 g/ha: 0%
[4]; 4 g/ha
  Kill rate in % after 2 d: 0%
[2]; Spodoptera frugiperda, 144 h, 0.16 g/ha, after 6 d, read-out: Kill rate in % after 6 d
  pest or weed control at 0.16 g/ha: 0%

## COC(=O)N(C(=O)N1CO[C@@]2(C(=O)OC)Cc3cc(Cl)ccc3C2=N1)c1ccc(OC(F)(F)F)cc1 [indoxacarb]
[3]; 20 g/ha, after 1 d
  Kill rate in % after 1 d: 0%
[2]; 0.8 g/ha
  Kill rate in % after 2 d: 50%

## CC1(C)[C@H](C(=O)O[C@H](C#N)c2cccc(Oc3ccccc3)c2)[C@@H]1/C=C(\Cl)C(F)(F)F [gamma-cyhalothrin]
[3]; 0.032 g/ha, after 1 d
  Kill rate in % after 1 d: 0%
[1]; 0.8 g/ha, after 2 d, applied individually
  Kill rate in % after 2 d: 0%
[2]; 0.032 g/ha
  Kill rate in % after 2 d: 17%

## COCCOC(=O)C(C#N)(C(=O)c1ccccc1C(F)(F)F)c1ccc(C(C)(C)C)cc1 (centres unmarked) [cyflumetofen]
[4]; [6]
  pest or weed control at 4 g/ha: 0%
[2]; [7]
  pest or weed control at 4 g/ha: 17%

## CC1(C)[C@H](C(=O)O[C@H](C#N)c2cccc(Oc3ccccc3)c2)[C@@H]1/C=C(\Cl)C(F)(F)F [L-cyhalothrin]
[3]; Myzus persicae, 24 h, 0.16 g/ha, after 1 d, read-out: Kill rate in % after 1 d
  pest or weed control at 0.16 g/ha: 0%
[1]; [8]
  pest or weed control at 4 g/ha: 20%
[2]; [9]
  pest or weed control at 0.032 g/ha: 0%

## Nc1nc(N)nc(NC2CC2)n1 [cyromazine]
[3]; Myzus persicae, 24 h, 100 g/ha, after 1 d, read-out: Kill rate in % after 1 d
  pest or weed control at 100 g/ha: 0%
[4]; [6]
  pest or weed control at 4 g/ha: 0%
[2]; [7]
  pest or weed control at 4 g/ha: 0%

## CCCSP(=O)(OCC)Oc1ccc(Br)cc1Cl (centres unmarked) [profenophos]
[4]; 4 g/ha
  Kill rate in % after 2 d: 0%
[4]; [6]
  pest or weed control at 4 g/ha: 0%
[2]; [7]
  pest or weed control at 4 g/ha: 17%

## O=S(=O)(CCC(F)=C(F)F)c1ncc(Cl)s1 [fluensulfone]
[1]; 2000 g/ha, after 2 d, applied individually
  Kill rate in % after 2 d: 0%
[2]; 2000 g/ha, after 6 d
  Kill rate in % after 6 d: 0%

## O=C(NC(=O)c1c(F)cccc1F)Nc1ccc(OC(F)(F)C(F)OC(F)(F)F)c(Cl)c1 (centres unmarked) [novaluron]
[4]; [11]
  pest or weed control at 0.8 g/ha: 0%
[2]; [5]
  pest or weed control at 0.8 g/ha: 67%

## COc1cccc(C(=O)NN(C(=O)c2cc(C)cc(C)c2)C(C)(C)C)c1C [methoxyfenozide]
[3]; [10]
  pest or weed control at 4 g/ha: 0%
[4]; [11]
  pest or weed control at 0.8 g/ha: 0%
[2]; [5]
  pest or weed control at 0.8 g/ha: 0%

## CNC(=O)Oc1cccc2ccccc12 [carbaryl]
[3]; Myzus persicae, 24 h, read-out: Kill rate in % after 1 d
  pest or weed control at 500 g/ha: 0%
[1]; Tetranychus urticae, 48 h, read-out: Kill rate in % after 2 d
  pest or weed control at 500 g/ha: 10%
[1]; Tetranychus urticae, 144 h, read-out: Kill rate in % after 6 d
  pest or weed control at 500 g/ha: 20%
[2]; Spodoptera frugiperda, 144 h, read-out: Kill rate in % after 6 d
  pest or weed control at 4 g/ha: 0%

## emamectin benzoate
[3]; 0.16 g/ha, after 1 d
  Kill rate in % after 1 d: 0%
[3]; 0.8 g/ha, after 1 d
  Kill rate in % after 1 d: 0%
[4]; 0.032 g/ha, after 6 d
  Kill rate in % after 6 d: 0%
[1]; 0.032 g/ha, after 2 d, applied individually
  Kill rate in % after 2 d: 0%
